Laboratory results reported in US20240165209A1, “PLACENTAL ALKALINE PHOSPHATASE FOR REDUCING THE LOSS OF RED BLOOD CELLS, WHITE BLOOD CELLS, AND PLATELETS IN CHEMOTHERAPY TREATED CANCER PATIENTS” (ZOLTAN LABORATORIES, LLC, priority 2021, published 2024).

Assays:
[1] = test system: granulocyte-macrophage colony-forming units (CFU-GM); experiment: Granulocyte-macrophage colony-forming units (CFU-GM), semisolid colony-forming cell assay, Cyp treated T47D tumor bearing mice; assay type: in vivo, mouse; conditions: for CFU-GM/10^5 nucleated BM cells: Cyp 120 mg/kg i.p. daily x6, PLAP 7.5 mg/kg s.c. days 0, 2, 4, 6; for CFU-GM per femur: calculated: nucleated cells in the femur x CFU-GM
Protocol: (§1) Again, first-generation hybrid BDF1 (C57BL/6 female×DBA/2 male) 10 weeks old adult female mice bearing T47D tumors (2.6-3.3 cm^3) were used. In the first group, mice received no treatment. In the second and third groups, mice were administered 120 mg/kg of Cyp intraperitoneally once a day for 6 consecutive days. In a third group, mice were also administered 7.5 mg/kg of PALP subcutaneously on days 0, 2, 4 and 6. On the days indicated in TABLE 4, the animals were killed, then the bone marrow was flushed from the femurs with Iscove's modified Dulbecco's medium (Gibco BRL, Gaithersburg, MD, USA). This was followed by standard erythrocyte lysis and then by counting the number of nucleated bone marrow (BM) cells per femur using a hemocytometer.
To measure the formation of the granulocyte-macrophage colony-forming units (CFU-GM), a semisolid colony-forming cell assay was used. Equal numbers of nucleated bone marrow cells (isolated on days as indicated above) were plated in 35-mm Petri dishes (Costar, Cambridge, MA, USA) in Iscove's modified Dulbecco's medium supplemented with 1% methylcellulose, 30% horse serum (Gibco), 10% WEHI-3B conditioned medium as a source of growth factors, 4 mM L-glutamine, 0.25 mM α-thioglycerol (Gibco), 1% deionized bovine serum albumin (Sigma), and antibiotics (Gibco). Cells were cultured at 37° C. in 5% CO2/95% air atmosphere. CFU-GM was counted on day 9. Three parallel plates were used for each 3 animals (9 plates for one number). Colonies containing at least 50 cells were counted which is a generally accepted value in the literature. In TABLE 4, “CFU-GM per femur” is a calculated value derived from multiplying the number of nucleated cells in the femur with the number of CFU-GM; this number gives the number of CFU-GM in one femur. Each value is expressed as the mean±standard deviation of 9 plates (derived from 3 animals).

[2] = test system: nucleated bone marrow cells (BM); experiment: Nucleated bone marrow (BM) cells per femur in Cyp treated T47D tumor bearing mice; assay type: in vivo, mouse; conditions: Cyp 120 mg/kg i.p. daily x6, PLAP 7.5 mg/kg s.c. days 0, 2, 4, 6
Protocol: as §1

[3] = test system: blood cells (RBCs, WBCs, platelets) of T47D tumor bearing mice; experiment: Experiment 2: blood cell counts in Cyp-treated T47D tumor bearing mice, last sample day 10; assay type: in vivo, mouse; conditions: Cyp 120 mg/kg, PLAP 7.5 mg/kg days 0, 2, 4, 6
Protocol: (§2) In the two experiments performed, first-generation hybrid BDF1 (C57BL/6 female×DBA/2 male) 10 weeks old adult female mice bearing T47D tumors (2.6-3.3 cm 3 volume) were used.
The second experiment was performed with T47D tumor bearing mice similarly to the one described to TABLE 2, except that one group of Cyp (120 mg/kg) treated mice were co-treated treated with PLAP (7.5 mg/kg) on days 0, 2, 4, and 6. […] The data shown is the average of 6 independent determinations±S.D.

[4] = test system: blood cells (RBCs, WBCs, platelets) of T47D tumor bearing mice; experiment: Experiment 1: blood cell counts in Cyp-treated T47D tumor bearing mice, last sample day 9; assay type: in vivo, mouse; conditions: Cyp 120 mg/kg i.p. daily x6, PLAP 7.5 mg/kg s.c. days 0, 3, 6
Protocol: as §2
In the first group, mice received no treatment. In the second and third groups, mice were administered 120 mg/kg of cyclophosphamide (Cyp) intraperitoneally once a day for 6 consecutive days administered between 10-10.30 AM. In a third group, mice were also administered 7.5 mg/kg of PLAP subcutaneously on days 0, 3 and 6 between 9-9.30 AM. In each group, mice were kept on standard diet (˜15% fat, 65% carbohydrate, and 20% proteins) purchased from Charles River VRFI. Both PLAP (for the 3rd group) and Cyp were dissolved in physiological (0.9%) saline and injected in 50 μl volume. […] The data shown is the average of 6 independent determinations ±S.D.

[5] = test system: mouse bone marrow-derived hematopoietic stem cells (HSCs); conditions: 200 μM Cyp, 3 days, absence of PLAP
Protocol: Bone marrow was harvested by flushing bones from female C57/BL/6 mice in Fischer medium (Thermo Fisher Scientific; catalogue no. 21475025) containing 20% horse serum (Hyclone, Logan, UT), 100 Unit/ml penicillin, […] streptomycin (Gibco, BRL), 0.015 fungizone (Gibco, BRL), and 0.1 μM hydrocortisone sodium succinate (SynoPharm; Hamburg, Germany). Pooled stem cells were seeded into 25 cm 3 flasks (10 ml cell suspension) and after 3 days of incubation at 33° C. in 5% CO2 in air in the absence of PLAP, they were plated into 12-well plates and were incubated in the absence (n=8) or presence of 50 μg/ml PLAP (n=8) for additional 3 days.
In a follow up experiment with hematopoietic stem cells, the same incubation medium in 12-well plates contained either no other addition (n=8) or contained 200 μM Cyp without (n=8) or with 50 μg/ml PLAP (n=8) for 3 days.

For O.O=P1(N(CCCl)CCCl)NCCCO1 (stereo not shown) [Cyp, 2-[Bis (2-chloroethyl)amino] tetrahydro-2H-1,3,2-oxazaphosphorine 2-oxide monohydrate], the “CFU-GM/10^5 nucleated BM cells” value ([1]; BM isolated day 0) was 78.1 ± 6.1, the “CFU-GM/10^5 nucleated BM cells” value ([1]; BM isolated day 3) was 34.5 ± 7.2 and the “CFU-GM/10^5 nucleated BM cells” value ([1]; BM isolated day 6) was 25.8 ± 4.4. The “CFU-GM/10^5 nucleated BM cells” value ([1]; BM isolated day 9) was 98.5 ± 8.0, the CFU-GM per femur ([1]; day 0) was 1,101 and the CFU-GM per femur ([1]; day 3) was 321. The CFU-GM per femur ([1]; day 6) was 80, the CFU-GM per femur ([1]; day 9) was 482 and the “Nucleated BM cells/femur” value ([2]; day 0) was 14.11 ± 1.50 ×10^6. The “Nucleated BM cells/femur” value ([2]; day 3) was 9.32 ± 2.32 ×10^6, the “Nucleated BM cells/femur” value ([2]; day 6) was 3.10 ± 2.26 ×10^6 and the “Nucleated BM cells/femur” value ([2]; day 9) was 4.90 ± 2.17 ×10^6. For the same compound, the Platelets ([3]; day 0) was 1,185 ± 101^ ×10^−3/μl, the RBCs ([3]; day 0) was 9.51 ± 0.70 ×10^−6/μl and the WBCs ([3]; day 0) was 8.86 ± 0.61 ×10^−3/μl. The Platelets ([3]; day 6) was 372 ± 57 ×10^−3/μl, the RBCs ([3]; day 6) was 4.83 ± 0.62 ×10^−6/μl and the WBCs ([3]; day 6) was 2.79 ± 0.47 ×10^−3/μl. For the same compound, the Platelets ([3]; day 10) was 746 ± 92 ×10^−3/μl, the RBCs ([3]; day 10) was 6.88 ± 0.61 ×10^−6/μl and the WBCs ([3]; day 10) was 6.15 ± 0.45 ×10^−3/μl. For the same compound, the Platelets ([4]; day 0) was 1,114 ± 111 ×10^−3/μl, the RBCs ([4]; day 0) was 9.51 ± 1.09 ×10^−6/μl and the WBCs ([4]; day 0) was 7.92 ± 0.72 ×10^−3/μl. For the same compound, the Platelets ([4]; day 3) was 704 ± 98 ×10^−3/μl, the RBCs ([4]; day 3) was 7.28 ± 1.29 ×10^−6/μl and the WBCs ([4]; day 3) was 4.22 ± 0.85 ×10^−3/μl. For the same compound, the Platelets ([4]; day 6) was 404 ± 139 ×10^−3/μl, the RBCs ([4]; day 6) was 4.94 ± 0.63 ×10^−6/μl and the WBCs ([4]; day 6) was 2.73 ± 0.53 ×10^−3/μl. The Platelets ([4]; day 9) was 687 ± 114 ×10^−3/μl, the RBCs ([4]; day 9) was 6.26 ± 0.71 ×10^−6/μl and the WBCs ([4]; day 9) was 5.72 ± 0.49 ×10^−3/μl. For the same compound, the “decrease of the number of cells by Cyp” value [5] was 52%.
